Assay [1] concerns the target T1, human recombinant 5-HT2C receptor (Homo sapiens, UniProt P28335).
T1 sequence (P28335 33-458): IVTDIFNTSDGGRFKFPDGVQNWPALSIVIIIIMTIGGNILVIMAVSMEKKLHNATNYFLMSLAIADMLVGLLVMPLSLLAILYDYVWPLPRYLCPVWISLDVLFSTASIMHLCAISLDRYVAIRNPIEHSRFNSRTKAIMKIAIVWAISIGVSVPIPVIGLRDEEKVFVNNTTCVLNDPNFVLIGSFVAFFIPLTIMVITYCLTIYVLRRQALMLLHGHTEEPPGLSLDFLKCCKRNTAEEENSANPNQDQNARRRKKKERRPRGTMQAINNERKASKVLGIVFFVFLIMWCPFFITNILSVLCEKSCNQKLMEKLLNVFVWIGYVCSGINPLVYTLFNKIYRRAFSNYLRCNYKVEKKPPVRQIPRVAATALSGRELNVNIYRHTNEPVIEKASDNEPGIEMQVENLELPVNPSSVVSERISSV
The assay is described as follows: Affinity for 5HT2 receptor binding sites, h5-HT2C, [3H]mesulergine. Conditions: CHO h5-HT2C membranes.

The next assay has as its target 5-HT2A receptor (Homo sapiens, UniProt P28223). In words: Affinity for 5-HT2A receptor binding sites, radioligand binding with [3H]ketanserin. Conditions: read-out: Ki 5-HT2A, rat cortex membranes (assay 2) or NIH3T3 h5-HT2A membranes (assay 3), table does not say which.
The target of a further assay is 5-HT2B receptor (Homo sapiens, UniProt P41595). In words: Affinity for 5HT2 receptor binding sites, h5-HT2B, [3H]mesulergine. Conditions: CHO h5-HT2B membranes.
Chain of 5-HT2B receptor (P41595 whole entry): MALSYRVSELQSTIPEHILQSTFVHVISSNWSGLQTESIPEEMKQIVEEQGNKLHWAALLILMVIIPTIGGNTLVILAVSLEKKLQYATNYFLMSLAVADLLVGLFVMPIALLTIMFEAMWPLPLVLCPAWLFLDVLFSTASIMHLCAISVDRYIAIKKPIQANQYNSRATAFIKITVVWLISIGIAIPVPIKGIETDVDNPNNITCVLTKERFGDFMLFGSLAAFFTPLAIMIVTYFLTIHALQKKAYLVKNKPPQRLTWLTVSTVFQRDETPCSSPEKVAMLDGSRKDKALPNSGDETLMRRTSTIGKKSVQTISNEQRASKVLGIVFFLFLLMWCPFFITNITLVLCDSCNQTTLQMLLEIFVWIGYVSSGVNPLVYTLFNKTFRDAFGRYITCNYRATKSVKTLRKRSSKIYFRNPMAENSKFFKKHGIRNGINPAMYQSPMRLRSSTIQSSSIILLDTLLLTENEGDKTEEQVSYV
For another assay, the target named is rat 5-HT7a receptor (Rattus norvegicus, UniProt P32305). The assay is described as follows: Affinity for 5-HT7 receptor binding sites, radioligand binding with [3H]5-CT. Conditions: membranes of HEK-293 cells with rat 5-HT7a, 1 nM [3H]5-CT. On the procedure:
The affinity of the compounds described in this invention for the 5-HT7 receptor binding site was evaluated by single competition radioligand binding assay. The assay was performed on membranes prepared from HEK-293 cells that had been subjected to stable transfection with the rat 5-HT7a receptor (GB: NM022938). Cells were scraped from the culture plates, suspended in Tris-HCl 50 mM pH 7.5 and collected through centrifugation (1000 rpm for 5 min). The cell pellets were homogenized (Polytron, 15 s, setting 5) in 50 mM Tris-HCl (pH 7.5), 5 mM EDTA. Following centrifugation (15,000 rpm for 25 min), membranes (135 μg protein/mL) were resuspended in the same buffer and incubated for 60 min at RT with 1 nM [^3H]5-CT in the presence of increasing concentration of test compounds. Nonspecific binding was defined in the presence of 10 μM 5-HT. Incubation was stopped by rapid filtration using the cell harvester (Packard). Radioactivity was counted in a TopCount-NXT (Packard). Experiments were conducted in triplicate.

pKi: −log10 of the molar value. Counter-ions that a name gives are not always drawn.

As usually defined, the pKi is the negative decadic logarithm of the Ki, by convention in mol/L.

Chain of rat 5-HT7a receptor (P32305 whole entry): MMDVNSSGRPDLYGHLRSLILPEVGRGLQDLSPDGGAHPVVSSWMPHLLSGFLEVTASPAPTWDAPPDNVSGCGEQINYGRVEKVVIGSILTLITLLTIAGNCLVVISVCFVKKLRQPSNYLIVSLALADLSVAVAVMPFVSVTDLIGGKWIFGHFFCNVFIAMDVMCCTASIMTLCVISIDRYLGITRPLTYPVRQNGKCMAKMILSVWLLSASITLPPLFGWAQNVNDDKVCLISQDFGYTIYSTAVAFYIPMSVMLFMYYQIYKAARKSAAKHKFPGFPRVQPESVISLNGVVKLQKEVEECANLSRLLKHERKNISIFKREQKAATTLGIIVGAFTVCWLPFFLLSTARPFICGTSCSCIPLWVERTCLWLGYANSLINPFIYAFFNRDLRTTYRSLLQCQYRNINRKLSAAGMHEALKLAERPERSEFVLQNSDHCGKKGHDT

In the case of `CC(C)c1nc(-c2ccccc2)c2c(n1)C(C)CN(Cc1ccccc1)C2` (stereo not shown) [Example 95, 6-Benzyl-2-isopropyl-8-methyl-4-phenyl-5,6,7,8-tetrahydro-pyrido[4,3-d]pyrimidine], the pKi was below 5.00 in assay [1], 5.70 on 5-HT2A receptor, below 5.00 at 5-HT2B receptor and below 5.00 at rat 5-HT7a receptor.

For `Cc1ccc(-c2cc(CN(C)C)nc(Cc3ccccc3)n2)cc1` [Example 112, (2-Benzyl-6-p-tolyl-pyrimidin-4-ylmethyl)-dimethyl-amine], the pKi in assay [1] was below 5.00; at 5-HT2A receptor it was 6.89; on 5-HT2B receptor, below 5.00; at rat 5-HT7a receptor, below 5.00.

With `CCC(C)c1nc2c(c(-c3cccc(F)c3)n1)CNCC2` (stereo not shown) [Example 43, 2-sec-Butyl-4-(3-fluoro-phenyl)-5,6,7,8-tetrahydro-pyrido[4,3-d]pyrimidine], the pKi in assay [1] is below 5.00; on 5-HT2A receptor, 6.70; on 5-HT2B receptor it was below 5.00; on rat 5-HT7a receptor it was below 5.00.

`CN(C)CCc1cc(-c2ccc(F)cc2)nc(C(C)(C)C)n1` [Example 167, {2-[2-tert-Butyl-6-(4-fluoro-phenyl)-pyrimidin-4-yl]-ethyl}-dimethyl-amine]: the pKi in assay [1] is 6.70; on 5-HT2A receptor it was 8.15; on 5-HT2B receptor, 7.85; on rat 5-HT7a receptor it was 6.35.

On to `CC(C)c1nc2c(c(-c3ccc(F)cc3)n1)CCN(C)C2` [Example 84, 4-(4-Fluoro-phenyl)-2-isopropyl-7-methyl-5,6,7,8-tetrahydro-pyrido[3,4-d]pyrimidine hydrochloride], for which the pKi in assay [1] is 5.30; on 5-HT2A receptor, 7.85; on 5-HT2B receptor it was 6.40; on rat 5-HT7a receptor, below 5.00.

On to `CC(C)Cc1nc2c(c(-c3cccs3)n1)CNCC2` [Example 35, 2-Isobutyl-4-thiophen-2-yl-5,6,7,8-tetrahydro-pyrido[4,3-d]pyrimidine], for which the pKi in assay [1] was 5.70; on 5-HT2A receptor, 7.15; on 5-HT2B receptor it was 6.40; at rat 5-HT7a receptor, 6.30.

On to `Cc1ccc(-c2nc(C(C)C)nc3c2CN(Cc2ccccc2)CC3C)cc1` (stereo not shown) [Example 94, 6-Benzyl-2-isopropyl-8-methyl-4-p-tolyl-5,6,7,8-tetrahydro-pyrido[4,3-d]pyrimidine], for which the pKi (in assay [1]; at 5-HT2A receptor; at 5-HT2B receptor; at rat 5-HT7a receptor) was below 5.00 each time.

On to `Cc1ccc(-c2nc(CC(C)C)nc3c2CNCC3)cc1` [Example 38, 2-Isobutyl-4-p-tolyl-5,6,7,8-tetrahydro-pyrido[4,3-d]pyrimidine], for which the pKi in assay [1] was 6.10; at 5-HT2A receptor, 7.40; at 5-HT2B receptor, 7.30; at rat 5-HT7a receptor, below 5.00.

For `CC(C)c1nc2c(c(-c3ccc(F)cc3)n1)CN(Cc1ccccc1)C2` [Example 106, hydrochloride], the pKi in assay [1] is below 5.00; at 5-HT2A receptor, 7.05; at 5-HT2B receptor, 5.20; at rat 5-HT7a receptor, below 5.00.

For `CC(C)Cc1nc2c(c(-c3ccncc3)n1)CNCC2` [Example 36, 2-Isobutyl-4-pyridin-4-yl-5,6,7,8-tetrahydro-pyrido[4,3-d]pyrimidine], the pKi (in assay [1]; at 5-HT2A receptor; at 5-HT2B receptor; on rat 5-HT7a receptor) was below 5.00 throughout.

As to `CC(C)c1nc2c(c(-c3ccc(F)cc3)n1)CN(C)CC2` [Example 22, 4-(4-Fluoro-phenyl)-2-isopropyl-6-methyl-5,6,7,8-tetrahydro-pyrido[4,3-d]pyrimidine], the pKi in assay [1] is 5.89; on 5-HT2A receptor it was 7.49; on 5-HT2B receptor it was 6.30; at rat 5-HT7a receptor, below 5.00.

Consider `CC(C)Cc1nc2c(c(-c3ccsc3)n1)CNCC2` [Example 34, 2-Isobutyl-4-thiophen-3-yl-5,6,7,8-tetrahydro-pyrido[4,3-d]pyrimidine], for which the pKi in assay [1] was 6.00; at 5-HT2A receptor it was 6.82; on 5-HT2B receptor, 6.40; at rat 5-HT7a receptor, below 5.00.

Regarding `CCC(C)c1nc2c(c(-c3ccc(OC(F)(F)F)cc3)n1)CNCC2` (stereo not shown) [Example 45, 2-sec-Butyl-4-(4-trifluoromethoxy-phenyl)-5,6,7,8-tetrahydro-pyrido[4,3-d]pyrimidine], the pKi (in assay [1]; at 5-HT2A receptor; on 5-HT2B receptor; at rat 5-HT7a receptor) was below 5.00 throughout.

As to `COc1ccc(-c2nc(Cc3ccccc3)nc3c2CCNC3)cc1` [Example 79, 2-Benzyl-4-(4-methoxy-phenyl)-5,6,7,8-tetrahydro-pyrido[3,4-d]pyrimidine], the pKi in assay [1] is 6.05; on 5-HT2A receptor, 6.94; at 5-HT2B receptor, 6.36; at rat 5-HT7a receptor, 6.52.

For `Fc1cccc(-c2nc(Cc3ccccc3)nc3c2CNCC3)c1` [Example 12, 2-Benzyl-4-(3-fluoro-phenyl)-5,6,7,8-tetrahydro-pyrido[4,3-d]pyrimidine], the pKi in assay [1] is 5.30; on 5-HT2A receptor it was 6.52; at 5-HT2B receptor it was below 5.00; at rat 5-HT7a receptor, below 5.00.

As to `CC(C)c1nc(-c2ccc(Cl)cc2)c2c(n1)C(C)CN(Cc1ccccc1)C2` (stereo not shown) [Example 97, 6-Benzyl-4-(4-chloro-phenyl)-2-isopropyl-8-methyl-5,6,7,8-tetrahydro-pyrido[4,3-d]pyrimidine], the pKi (in assay [1]; on 5-HT2A receptor; on 5-HT2B receptor; on rat 5-HT7a receptor) was below 5.00 throughout.

On to `CC(C)Cc1nc2c(c(-c3ccc(C#N)cc3)n1)CNCC2` [Example 40, 4-(2-Isobutyl-5,6,7,8-tetrahydro-pyrido[4,3-d]pyrimidin-4-yl)-benzonitrile], for which the pKi is below 5.00 in assay [1], 6.30 on 5-HT2A receptor, below 5.00 at 5-HT2B receptor and below 5.00 on rat 5-HT7a receptor.

In the case of `Cc1cc(-c2nc(C(C)C)nc3c2CCN(C)C3)cs1` [Example 90, 2-Isopropyl-7-methyl-4-(5-methyl-thiophen-3-yl)-5,6,7,8-tetrahydro-pyrido[3,4-d]pyrimidine hydrochloride], the pKi is 6.00 in assay [1], 7.77 on 5-HT2A receptor, 6.89 on 5-HT2B receptor and 5.64 at rat 5-HT7a receptor.

Consider `COc1ccc(-c2nc(C3CCCC3)nc3c2CNCC3)cc1` [Example 19, 2-Cyclopentyl-4-(4-methoxy-phenyl)-5,6,7,8-tetrahydro-pyrido[4,3-d]pyrimidine], for which the negative logarithm of the Ki (pKi) is 6.70 in assay [1], 7.00 on 5-HT2A receptor, 6.85 at 5-HT2B receptor and below 5.00 on rat 5-HT7a receptor.

In the case of `c1ccc(Cc2nc3c(c(-c4ccccc4)n2)CNCC3)cc1` [Example 11, 2-Benzyl-4-phenyl-5,6,7,8-tetrahydro-pyrido[4,3-d]pyrimidine], the pKi in assay [1] is 5.70; at 5-HT2A receptor it was 7.00; at 5-HT2B receptor it was below 5.00; at rat 5-HT7a receptor, below 5.00.

Regarding `Cc1ccc(-c2nc(C3CCC3)nc3c2CNCC3)cc1` [Example 6, 2-Cyclobutyl-4-p-tolyl-5,6,7,8-tetrahydro-pyrido[4,3-d]pyrimidine], the pKi was 6.52 in assay [1], 7.30 on 5-HT2A receptor, 6.70 on 5-HT2B receptor and below 5.00 at rat 5-HT7a receptor.

`Cc1ccc(-c2cc(CCN)nc(Cc3ccccc3)n2)cc1` [Example 115, 2-(2-Benzyl-6-p-tolyl-pyrimidin-4-yl)-ethylamine]: the negative logarithm of the Ki (pKi) in assay [1] was below 5.00; on 5-HT2A receptor, 6.00; on 5-HT2B receptor, 5.30; on rat 5-HT7a receptor it was 5.30.

`CC(C)Cc1nc2c(c(-c3ccc(F)cc3)n1)CNCC2` [Example 37, 4-(4-Fluoro-phenyl)-2-isobutyl-5,6,7,8-tetrahydro-pyrido[4,3-d]pyrimidine]: the pKi is 6.00 in assay [1], 6.40 on 5-HT2B receptor and below 5.00 on rat 5-HT7a receptor.

As to `CNCCc1cc(-c2ccc(F)cc2)nc(C(C)(C)C)n1` [Example 166, {2-[2-tert-Butyl-6-(4-fluoro-phenyl)-pyrimidin-4-yl]-ethyl}-methyl-amine], the pKi is 6.77 in assay [1], 7.96 on 5-HT2A receptor and 7.74 on 5-HT2B receptor.

Take `Fc1ccc(-c2nc(C3CC3)nc3c2CNCC3)cc1` [Example 7, 2-Cyclopropyl-4-(4-fluoro-phenyl)-5,6,7,8-tetrahydro-pyrido[4,3-d]pyrimidine]: the pKi is 6.05 in assay [1], 7.60 at 5-HT2A receptor and below 5.00 at rat 5-HT7a receptor.

The record behind these values is patent US7598255B2 (Janssen Pharmaceutica NV, priority 2005, dated 2009).
